Experimental data: publication PMC11788822, “Uncovering the potent antimicrobial activity of squaramide based anionophores – chloride transport and membrane disruption” (Chemical Science, 2025)
Read-outs that look alike come from different tables or passages of the source.

Tests used:
S. aureus cells = experiment: MQAE chloride influx assay; assay type: cell-based, Staphylococcus aureus; conditions: 5 min, MQAE fluorescence fitted to Stern–Volmer equation
Method: To study this, we utilised N-(ethoxycarbonylmethyl)-6-methoxyquinolinium bromide (MQAE) as a fluorescent reporter for cellular Cl^− levels. MQAE fluorescence is highly sensitive to Cl^− flux, where increased cytosolic Cl^− concentration gives rise to a collisional quenching effect. […] To do this, cells were pre-treated with MQAE and then exposed to varying concentrations of 1, 2 and 4, whereafter MQAE fluorescence was read at T = 5 min, and plotted relative to control (Fig. 3).
Furthermore, using the fluorescence data acquired from these assays, and fitting to the Stern–Volmer equation, we could approximate the increased concentration of Cl^− with respect to basal fluorescence for each of the concentrations studied (Table 3). […]
MQAE chloride influx assay
From an overnight culture brought to stationary phase (OD600 = ~1.0) was taken samples, brought to an OD600 = 0.2, which were treated with N-Ethoxycarbonylmethyl-6-methoxyquinolium Bromide (MQAE) (10 mM) for 1 h at 37 0C. Subsequently, cells were washed with & resuspended in PBS. 2 mL of samples were taken & transferred to a fluorescence cuvette, whereupon fluorescence was read (λexc = 350 nm (slit width = 5 nm) λem = 460 nm (slit width = 5 nm)) using a Cary Eclipse Fluorescence Spectrophotometer (Agilent Technologies). Subsequently samples were treated with the Compound of interest for 5 mins whereafter fluorescence was measured as previous, with intensity plotted relative to control, […]
or measured over the course of 2 hrs, starting at T0 (upon addition of compound).
Alternatively, 200 µL aliquots of cell suspension were added to a 96-well plate, to the desired quantity, and were either untreated (control), or treated with the compound of interest for 5 mins, whereafter fluorescence was read using a BMG Labtech Clariostar Plus platereader, and plotted relative to control. […]
Subsequently, cells were resuspended in 1 mL PBS, and treated with a the respective fluorophore or compound of interest at the specified concentration or […]

[1] = system: methicillin-resistant S. aureus (MRSA); experiment: Growth inhibition assay, MRSA; assay type: cell-based, Staphylococcus aureus; conditions: 24 h
Method: To determine IC50/80 values, growth (optical density) of S. aureus, methicillin-resistant S. aureus (MRSA), P. aeruginosa, and K. pneumoniae when treated with a range of concentrations of each active compound in vitro was measured at 600 nm after a 24 h incubation period at 37 °C. Each compound was studied for activity below […], and those showing little activity above 200 μM, were noted as such, and omitted from further study.
Staphylococcus aureus culture conditions […]
Methicillin-resistant Staphylococcus aureus culture conditions
Methicillin-resistant S. aureus (clinical isolate – St. James’ University Hospital, Dublin) was cultured at 37 °C in Nutrient broth (Oxoid), containing 25 µg/mL Ampicillin in an orbital shaker at 200 rpm. Stocks were kept on nutrient agar containing 25 µg/mL Ampicillin, stored at 4 °C for up to 2 months, or as glycerol stocks (50/50 glycerol:culture), stored at -70 °C indefinitely. […]
Bacterial cultures were brought to early stationary phase overnight, in nutrient broth (containing 25/50 µg/mL Ampicillin for MRSA/K. pneumoniae, respectively) at 37 °C. Cultures were diluted to an OD600 = 0.01. Aliquots of Culture (100 µl) were added to 100 µL serially diluted compound (200 – 0.78 µM) in nutrient broth in a 96-well plate (Sarstedt, Germany).
Plates were incubated at 37 °C for 24 h and growth was measured at 600 nm, where growth was measured and represented relative to control. […]

[2] = 1H NMR titration with TBACl, Cl− binding; conditions: association constant towards Cl−, compound 2.5 mM, 95% DMSO-d6, 1:1 binding model (Bindfit), errors below 10%
Method: To verify if 1–6 formed host–guest complexes with Cl^− in solution, ^1H NMR titrations of each compound (2.5 mM) with TBACl were carried out in DMSO-d6. Increasing equivalents of Cl^− were incrementally added, with spectral information obtained upon addition of each molar equivalent of Cl^−. […] Taking 1 as an example (Fig. 2), upon addition of sequential aliquots of Cl^− there is a clear downfield shift of both squaramide NHs, with minor contributions to the binding cleft derived from the ortho-aryl protons of the aniline of 1. The binding data from each titration was fitted to a 1 : 1 binding model using the Bindfit[36] open access software, and the results are tabulated below (Table 1), alongside the respective Hammett constant for the relevant substitution pattern.[37] […] This aligns with previously reported receptors,[38] where compounds containing CF3 substituents in particular are known to have increased anion binding affinity as well as transport ability.[39]

[3] = Staphylococcus aureus, MRSA, read-out: MRSA IC50, growth (OD 600 nm) relative to control, 24 h, 37 °C
[4] = Staphylococcus aureus, MRSA, read-out: MRSA IC80, growth (OD 600 nm) relative to control, 24 h, 37 °C

Row | SMILES | Increase in chloride concentration from basal level [Clθ] (mM) (S. aureus cells; 10 μM compound) | Increase in chloride concentration from basal level [Clθ] (mM) (S. aureus cells; 50 μM compound) | Increase in chloride concentration from basal level [Clθ] (mM) (S. aureus cells; 100 μM compound) | Increase in chloride concentration from basal level [Clθ] (mM) (S. aureus cells; 200 μM compound) | IC50 [1, 3] [µM] | IC80 [1, 4] [µM] | IC80 ([1]; read-out: MRSA IC80, growth (OD 600 nm) relative to control, 37 °C) [µM] | K a [2] [M⁻¹] | MRSA IC80 ([1]; growth (OD 600 nm) relative to control, 37 °C) | IC50 ([1]; read-out: MRSA IC50, growth (OD 600 nm) relative to control, 37 °C) [µM]
1 | O=c1c(Nc2ccc([N+](=O)[O-])cc2)c(NC23CC4CC(CC(C4)C2)C3)c1=O [Compound 4] | +0.61 (±0.07) mM | +1.74 (±0.02) mM | +3.57 (±0.18) mM | +10.19 (±0.08) mM | 50 | > 200 | > 200 | 202 | – | –
2 | O=c1c(Nc2ccc(Cl)c(Cl)c2)c(NC23CC4CC(CC(C4)C2)C3)c1=O [Compound 2] | +0.21 (±0.02) mM | +1.53 (±0.07) mM | +2.91 (±0.02) mM | +5.49 (±0.01) mM | 25 | > 200 | – | 263 | exceeded the testing range | –
3 | O=c1c(Nc2cc(C(F)(F)F)cc(C(F)(F)F)c2)c(NC23CC4CC(CC(C4)C2)C3)c1=O [Compound 1] | +0.31 (±0.02) mM | +1.44 (±0.16) mM | +4.22 (±2.01) mM | +13.31 (±3.05) mM | 1.56 | 200 | – | 235 | – | 1.6
